Several values for one entry are separate records, joined by “and”; a condition that tells them apart may be missing. Equal entries are not always repeated. Structures can show the parent of a compound that is named as a salt.
Legend:
[1] = test system: NMDA-induced seizure and death in mice; assay: NMDA-induced seizure and death (100 mg/kg NMDA challenge); assay type: in vivo; details: steroid 25 mg/kg i.p., DMSO 50%
Method: 5β3αHS (25 mg/kg, i.p.) protects mice from NMDA-induced death. None of the steroids tested altered the latency to NMDA-induced seizure. However, 100% of the animals that received 5β3αHS survived the 100 mg/kg NMDA challenge compared to 50% for DMSO, 75% for 5β3αS and E2 (3)HS, and 50% for E2 (17)HS.

[2] = test system: NMDA-induced convulsion and mortality in mice; assay: NMDA-induced convulsion test (200 mg/kg NMDA); assay type: in vivo
Method: Male CD-1 mice (Charles River Laboratories, Wilmington, Mass.) weighing 20-25 g were used for the NMDA-induced convulsion test. Mice were injected intraperitoneally with the test compound dissolved in DMSO or with vehicle. NMDA (200 mg/kg, i.p.) was injected either 2 minutes after intravenous injection of test compound or 20 minutes after intraperitoneal injection of test compound.

NMDA receptor = assay: Whole cell patch clamp, NMDA-induced current in cultured chick spinal cord neurons; assay type: cell-based; details: for average inhibition of the current induced by 30 μM NMDA: 50 μM steroid
Method: Cultures of dissociated spinal cord neurons were prepared as previously described (Farb, D. H., et al., J. Cell Biol., 80:651-661 (1979)). Briefly, the dissociated cells from 7-day chick embryos were plated on collagen-coated 35-mm tissue culture dishes in Eagle's minimum essential medium supplemented with 2.4 mM glutamine, 10% (v/v) heat-inactivated horse serum, 5% (v/v) chick embryo extract and antibiotics. Cultures were maintained in a humidified atmosphere of 5% CO2, 95% air at 37°. Cytarabine (1 μM) was added to the culture medium after 36 hr. of the initial plating to inhibit the proliferation of non-neuronal cells. One day later, this medium was replaced with a similar medium supplemented with 20.5 mM glucose, 19 mM KCl, and 2.5% chick embryo extract. Fresh medium was added twice weekly. Cultured neurons were used in experiments within 2-4 weeks after plating.
Experiments were carried out in 35-mm tissue culture dishes on the stage of an inverted phase contrast microscope. Whole cell currents were recorded by the whole cell variant of the patch clamp technique (Hamill, O. P., et al., Pfagers Arch. 891:85-100 (1981)). Patch electrodes had tip openings of about […] and resistances of 3-8 M.OMEGA. using an intracellular solution comprised of the following (in mM): 140 CsCl, 11 EGTA, and 10 HEPES (pH adjusted to 7.2 with CsOH). In experiments in which a high concentration of glycine was used, the intracellular solution was replaced with a low chloride (10 mM) pipette solution. This solution contained the following (in mM): 140 potassium gluconate, 10 KCl, 8 sodium gluconate, 11 EGTA, and 10 HEPES (pH adjusted to 7.2 with KOH). To prevent a marked run-down of NMDA-induced current at high NMDA concentrations, 4 mM potassium ATP was included in the intracellular solution. The bath solution contained the following (in mM): 150 NaCl, 4 KCl, 1 CaCl2, and 10 HEPES (pH adjusted to 7.2 with NaOH). No glycine was added to the solutions containing NMDA, because no additional glycine was required to obtain a robust NMDA response, and there was no effect of a maximal concentration (10 μM) of glycine on 5β3αS inhibition of the NMDA response. All experiments were performed at room temperature (23-25° C.).
Recordings were made using an Axopatch 1B patch clamp apparatus (Axon Instruments, Burlingame, Calif.). Cells with series resistances greater than 10 M.OMEGA. were rejected. After partial compensation, series resistances were between 3.5 and 6 M.OMEGA.. The holding potential was maintained at -70 mV unless otherwise noted. Currents were filtered at 1 kHz using an eight-pole Bessel filter (-3 dB) and digitized ([…]) using an on-line data acquisition system (pClamp, Axon Instruments).
Drug solutions were applied to single neurons by pressure ejection (15 psi) from seven-barrel pipettes. Seven-barrel pressure pipettes were positioned approximately […] from the neuronal soma. Under these conditions, the drug solution in the pressure pipette rapidly and effectively replaces the solution surrounding the target neurons with less than 10% dilution (Choi, D. W., et al., Nature (Lond.) 269:342-344 (1977); Chan, C. Y., et al., Life Sci., 83:2061-2069 (1983); Chan, C. Y. and Farb, D. H., J. Neurosci., 5:2365-2373 (1985)). All drugs were obtained from Sigma, with the except of AMPA hydrobromide (Research Biochemicals) and steroids (Steraloids). Stock solutions of steroids were prepared in dimethyl sulfoxide, the final concentration of which was 0.5% (v/v). To obviate the possible effects of dimethyl sulfoxide on the relevant agonist-induced currents, all other drug solutions including NMDA, kainate, AMPA and external buffer (in the pressure pipette) also contained 0.5% dimethyl sulfoxide. […]

[3] = mice, i.p., high dose, time limit 30 min

Compound: CC(=O)[C@H]1CC[C@H]2[C@@H]3CC[C@@H]4C[C@H](OC(=O)CCC(=O)O)CC[C@]4(C)[C@H]3CC[C@]12C [5β3αHS, 3α-hydroxy-5β-pregnan-20-one hemisuccinate]
- animals that survived the 100 mg/kg NMDA challenge [1]: 100%
- mortality induced by 200 mg/kg of NMDA ([2]; mice, i.p., FIG. 7): dose-dependently inhibited mortality
- tonic seizures induced by 200 mg/kg of NMDA ([2]; mice, i.p., FIG. 7): dose-dependently inhibited tonic seizures
- mortality induced by NMDA at the high dose [2, 3]: completely block the mortality
- tonic seizures induced by NMDA at the high dose [2, 3]: completely block the seizures

Compound: CC(=O)[C@H]1CC[C@H]2[C@@H]3CC[C@@H]4C[C@H](OS(=O)(=O)O)CC[C@]4(C)[C@H]3CC[C@]12C [5β3αS, 3α-hydroxy-5β-pregnan-20-one sulfate]
- average inhibition of the current induced by 30 μM NMDA (NMDA receptor; in the absence of glycine): 49.1±3.4%
- average inhibition of the current induced by 30 μM NMDA (NMDA receptor; with added 10 μM glycine): 51.3±3.5%
- inhibition of the response to 30 μM NMDA (NMDA receptor; 100 μM steroid applied with NMDA, holding potential -70 mV, sulfate): 66% and 66.1±2.7%
- average inhibition of the NMDA-induced current (NMDA receptor; 100 μM steroid, holding potential +50 mV): 62.0±2.8%
- average inhibition of the NMDA-induced current (NMDA receptor; 100 μM steroid, holding potential -70 mV, voltage dependence test): 63.2±2.7%
- maximal inhibition of the 30 μM NMDA response (NMDA receptor; curve-fit analysis): 101.1%
- NMDA nH in the presence of steroid (NMDA receptor; in the presence of 50 μM 5β3αS): 1.46
- EC50 (NMDA receptor; read-out: EC50 for inhibition of the 30 μM NMDA response, concentration-response curve, curve-fit, 30 μM NMDA, sulfate): 62 µM and 62.1 µM
- direct response to steroid applied alone (NMDA receptor; steroid alone): did not produce any direct response
- animals that survived the 100 mg/kg NMDA challenge [1]: 75%
- seizures and mortality induced by NMDA ([2]; mice, i.v. administration, FIG. 8): effective in blocking seizures and mortality
- latency to onset of seizures ([2]; printed:): increases the latency to onset of seizures
- mortality ([2]; printed: rats following i.v. injection of 200 mg/kg NMDA): decreases mortality

Compound: CC(=O)C1CCC2C3CC=C4CC(OS(=O)(=O)O)CCC4(C)C3CCC12C (stereo not shown) [PS, pregnenolone sulfate]
- average NMDA response with intracellular steroid (NMDA receptor; 100 μM steroid in the electrode buffer): did not differ significantly from control
- potentiation of the NMDA response (NMDA receptor; 100 μM steroid in the presence of 10 μM arachidonic acid): 182±25%
- potentiation of the NMDA response (NMDA receptor; 100 μM steroid in the presence of 200 μM 5β3βS): still evident
- potentiation of the NMDA induced current (NMDA receptor; 100 μM steroid, after about 1 hour of 4 mM DTT): 165±26%
- potentiation of the response to 30 μM NMDA (NMDA receptor; 100 μM steroid, in the absence of spermine): 150±14%
- potentiation of the NMDA response (NMDA receptor; 100 μM steroid, in the presence of 100 μM spermine): 178±12%
- potentiation of the 30 μM NMDA response (NMDA receptor; after DTT plus NEM treatment): 103±23%
- potentiation of the NMDA response (NMDA receptor; after approximately 1 hour of exposure to 10 mM DTT): 161±12%
- potentiation of the NMDA response by extracellularly applied steroid (NMDA receptor; in the absence of intracellular PS): 158±24%
- potentiation of the NMDA response by extracellularly applied steroid (NMDA receptor; in the presence of intracellular PS (100 μM)): 152±23%
